Values of other authors in patent US10022348B2, “Topical solution of isotretinoin” (SUN PHARMACEUTICAL INDUSTRIES LIMITED, priority 2009, dated 2018).

Test system: patients with severe acne
Details: oral

SMILES: CC1=C(/C=C/C(C)=C/C=C/C(C)=C\C(=O)O)C(C)(C)CCC1 [isotretinoin, 13-cis retinoic acid]
- long-term remission: about 80 % of patients
